Source: patent US6395885B1, “Use of lithium salts of anionic dyes to enhance their light-fastness” (Avecia Limited, priority 1998, dated 2002)

Assay: Light-fastness of ink jet prints on Xerox Acid paper faded in a weatherometer (colour difference ΔE)
Type: physicochemical
Protocol: Each ink was prepared by dissolving the Dye shown in the second column of Table 1 (0.35 g) in water (8.45 g) by adding ammonia and adjusting the pH to 9.5. 2-pyrrolidone (0.5 g), thiodiglycol (0.5 g) and Surfynol 465 (0.2 g) were then added and the mixture was stirred at ambient temperature. The resulting solution was filtered through a 0.45 μm filter to give the ink.
Each ink shown in Table 1 was loaded into a HP 560 ink jet printer and was applied to Xerox Acid paper using the ink jet printer. When the resulting prints had dried a portion of the print was mounted, half covered, and faded in an Atlas Ci35a weatherometer.
The light-fastness of the prints was assessed by measuring the colour difference (ΔE) between the faded and unfaded portions of the print using an X-Rite 939 spectrodensitometer. The time shown in the column marked ΔE in Table 1 refers to the number of hours the print was faded for in the weatherometer.
A low ΔE value indicates a small colour change after fading in the weatherometer and therefore a high light-fastness.
The light-fastness of Dyes (A) and (B) and the individual sodium and lithium salts thereof were measured as described in Example 1; namely by ink jet printing an ink containing the each dye onto Xerox Acid paper and fading the prints using an Xrite Weatherometer.

COc1cc(N=Nc2cccc(S(=O)(=O)O)c2)ccc1NC(=O)Nc1ccc(N=Nc2cccc(S(=O)(=O)O)c2)cc1OC [Comparative (3), C.I. Direct Yellow 132]
ΔE (50 hours) (ink with 3.5 parts dye printed on Xerox Acid paper, faded 50 hours in Atlas Ci35a weatherometer, low ΔE = high light-fastness): 10.77
Light-Fastness (after 50 hours) (measured as in Example 1 (ΔE), ink jet print on Xerox Acid paper, 50 hours of fading): 11
